The source of these data is ChEMBL document CHEMBL5303766, “Data for DCP probe FHT-2344” (2022).

Assay [1] deals with G protein-coupled receptor kinase 5 (Homo sapiens) (UniProt P34947). The experiment in a line: GPRK5 SGC Tm panel (DSF). The settings on record: for ΔTm: Compound concentration 10.0 uM.
Assay [2] deals with T1, Serine/threonine-protein kinase VRK1 (Homo sapiens) (UniProt Q99986).
T1 sequence (whole entry): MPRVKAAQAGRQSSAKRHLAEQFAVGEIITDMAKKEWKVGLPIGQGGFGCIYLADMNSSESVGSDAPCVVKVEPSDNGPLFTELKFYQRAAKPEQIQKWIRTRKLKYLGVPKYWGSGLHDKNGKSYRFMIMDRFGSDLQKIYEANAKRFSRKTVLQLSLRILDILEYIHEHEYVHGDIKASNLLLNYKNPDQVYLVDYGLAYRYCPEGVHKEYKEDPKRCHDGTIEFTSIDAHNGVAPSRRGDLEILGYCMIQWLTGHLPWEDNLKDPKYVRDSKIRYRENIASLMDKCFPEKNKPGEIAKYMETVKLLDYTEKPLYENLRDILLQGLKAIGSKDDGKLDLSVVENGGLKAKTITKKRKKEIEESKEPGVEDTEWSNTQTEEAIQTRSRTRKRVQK
The experiment in a line: VRK1 SGC Tm panel (DSF). The settings on record: for ΔTm: Compound concentration 10.0 uM.

For assay [3], the target named is T2, Ephrin type-B receptor 3 (Homo sapiens) (UniProt P54753).
T2 sequence (whole entry): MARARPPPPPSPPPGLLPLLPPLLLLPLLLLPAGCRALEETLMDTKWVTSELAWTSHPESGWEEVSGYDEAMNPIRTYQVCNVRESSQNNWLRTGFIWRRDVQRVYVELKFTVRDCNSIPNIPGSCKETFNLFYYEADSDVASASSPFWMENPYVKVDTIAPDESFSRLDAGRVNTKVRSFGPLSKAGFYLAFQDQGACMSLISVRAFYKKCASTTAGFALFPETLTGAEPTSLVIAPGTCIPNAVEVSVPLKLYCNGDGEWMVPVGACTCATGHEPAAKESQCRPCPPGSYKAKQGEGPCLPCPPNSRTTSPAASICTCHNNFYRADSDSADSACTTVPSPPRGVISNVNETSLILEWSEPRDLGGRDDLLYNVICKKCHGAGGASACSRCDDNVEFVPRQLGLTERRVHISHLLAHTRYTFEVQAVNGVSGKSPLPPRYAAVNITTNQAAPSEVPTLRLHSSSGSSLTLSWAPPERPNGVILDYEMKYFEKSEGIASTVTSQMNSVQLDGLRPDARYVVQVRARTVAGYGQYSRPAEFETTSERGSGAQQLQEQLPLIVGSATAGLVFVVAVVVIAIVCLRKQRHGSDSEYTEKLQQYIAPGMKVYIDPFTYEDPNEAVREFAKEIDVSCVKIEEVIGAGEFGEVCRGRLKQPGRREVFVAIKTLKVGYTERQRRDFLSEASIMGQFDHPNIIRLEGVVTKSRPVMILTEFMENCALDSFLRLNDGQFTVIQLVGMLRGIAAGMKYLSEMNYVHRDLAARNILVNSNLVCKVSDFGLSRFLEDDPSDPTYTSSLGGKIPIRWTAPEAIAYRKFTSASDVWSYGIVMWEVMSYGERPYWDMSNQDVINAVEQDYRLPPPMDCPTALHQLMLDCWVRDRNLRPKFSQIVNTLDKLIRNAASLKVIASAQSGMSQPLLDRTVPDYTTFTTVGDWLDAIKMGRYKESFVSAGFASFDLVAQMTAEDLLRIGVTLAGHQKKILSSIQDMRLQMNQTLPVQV
Put plainly: EPHB3 SGC Tm panel (DSF). The settings on record: for ΔTm: Compound concentration 10.0 uM.

The target in assay [4] is Beta-2 adrenergic receptor (Homo sapiens) (UniProt P07550). The settings on record: Compound concentration 10.0 uM.
The target in assay [5] is Mitogen-activated protein kinase 10 (Homo sapiens) (UniProt P53779). The experiment in a line: MAPK10 SGC Tm panel (DSF). The settings on record: for ΔTm: Compound concentration 10.0 uM.
Assay [6] has as its target T3, Serine/threonine-protein kinase DCLK1 (Homo sapiens) (UniProt O15075).
T3 sequence (whole entry): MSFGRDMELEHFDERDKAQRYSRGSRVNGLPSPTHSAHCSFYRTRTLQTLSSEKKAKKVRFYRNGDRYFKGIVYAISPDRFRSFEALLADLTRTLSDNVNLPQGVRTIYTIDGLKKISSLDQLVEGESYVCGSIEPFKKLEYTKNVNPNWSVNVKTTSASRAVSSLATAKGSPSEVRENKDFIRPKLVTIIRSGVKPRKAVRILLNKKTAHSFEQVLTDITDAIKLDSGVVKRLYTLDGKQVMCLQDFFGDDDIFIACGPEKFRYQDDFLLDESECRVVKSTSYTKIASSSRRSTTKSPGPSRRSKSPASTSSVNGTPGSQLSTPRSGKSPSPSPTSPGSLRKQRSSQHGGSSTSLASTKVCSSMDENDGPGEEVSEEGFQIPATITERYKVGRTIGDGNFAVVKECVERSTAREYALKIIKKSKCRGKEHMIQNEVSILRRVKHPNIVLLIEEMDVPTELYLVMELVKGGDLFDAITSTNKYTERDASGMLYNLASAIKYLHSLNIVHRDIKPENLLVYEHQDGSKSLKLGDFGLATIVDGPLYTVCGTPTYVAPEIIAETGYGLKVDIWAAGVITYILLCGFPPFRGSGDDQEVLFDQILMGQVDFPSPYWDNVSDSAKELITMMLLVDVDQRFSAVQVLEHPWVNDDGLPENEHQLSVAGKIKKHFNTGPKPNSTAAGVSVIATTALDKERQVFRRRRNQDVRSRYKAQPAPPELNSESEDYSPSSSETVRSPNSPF
Put plainly: DCAMKL1 SGC Tm panel (DSF). The settings on record: for ΔTm: Compound concentration 10.0 uM.

Assay [7] deals with 5-hydroxytryptamine receptor 7 (Homo sapiens) (UniProt P34969). The settings on record: Compound concentration 10.0 uM.
Assay [8] concerns the target Histamine H1 receptor (Homo sapiens) (UniProt P35367). The settings on record: Compound concentration 10.0 uM.
For assay [9], the target named is Alpha-2C adrenergic receptor (Homo sapiens) (UniProt P18825). The settings on record: Compound concentration 10.0 uM.
Chain of Alpha-2C adrenergic receptor (Homo sapiens) (P18825 whole entry): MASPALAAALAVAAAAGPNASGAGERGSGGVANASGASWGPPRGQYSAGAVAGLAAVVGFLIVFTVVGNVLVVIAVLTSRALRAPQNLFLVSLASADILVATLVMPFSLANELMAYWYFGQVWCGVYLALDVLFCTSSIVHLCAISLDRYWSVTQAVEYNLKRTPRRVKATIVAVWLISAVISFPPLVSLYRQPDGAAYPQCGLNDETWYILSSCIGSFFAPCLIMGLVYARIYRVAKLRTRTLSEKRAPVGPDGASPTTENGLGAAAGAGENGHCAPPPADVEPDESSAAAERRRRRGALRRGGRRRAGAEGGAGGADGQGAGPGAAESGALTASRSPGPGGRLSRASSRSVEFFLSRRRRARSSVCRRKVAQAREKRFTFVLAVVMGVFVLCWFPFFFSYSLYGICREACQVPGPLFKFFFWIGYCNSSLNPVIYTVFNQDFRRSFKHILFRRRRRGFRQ

Chain of Mitogen-activated protein kinase 10 (Homo sapiens) (P53779 whole entry): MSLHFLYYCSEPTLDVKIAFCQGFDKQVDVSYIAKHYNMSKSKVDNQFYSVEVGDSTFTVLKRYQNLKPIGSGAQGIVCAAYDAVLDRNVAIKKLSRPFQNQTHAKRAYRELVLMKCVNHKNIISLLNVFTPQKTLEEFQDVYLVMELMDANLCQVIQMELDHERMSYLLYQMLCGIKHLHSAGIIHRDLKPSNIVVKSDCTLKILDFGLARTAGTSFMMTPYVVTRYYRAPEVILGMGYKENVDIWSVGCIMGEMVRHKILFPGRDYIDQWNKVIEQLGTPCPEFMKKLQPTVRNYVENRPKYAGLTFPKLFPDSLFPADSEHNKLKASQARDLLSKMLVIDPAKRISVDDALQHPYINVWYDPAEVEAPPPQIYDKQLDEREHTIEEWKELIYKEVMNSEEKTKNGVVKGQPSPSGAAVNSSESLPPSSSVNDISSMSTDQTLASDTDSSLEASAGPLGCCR
Chain of G protein-coupled receptor kinase 5 (Homo sapiens) (P34947 whole entry, looked up): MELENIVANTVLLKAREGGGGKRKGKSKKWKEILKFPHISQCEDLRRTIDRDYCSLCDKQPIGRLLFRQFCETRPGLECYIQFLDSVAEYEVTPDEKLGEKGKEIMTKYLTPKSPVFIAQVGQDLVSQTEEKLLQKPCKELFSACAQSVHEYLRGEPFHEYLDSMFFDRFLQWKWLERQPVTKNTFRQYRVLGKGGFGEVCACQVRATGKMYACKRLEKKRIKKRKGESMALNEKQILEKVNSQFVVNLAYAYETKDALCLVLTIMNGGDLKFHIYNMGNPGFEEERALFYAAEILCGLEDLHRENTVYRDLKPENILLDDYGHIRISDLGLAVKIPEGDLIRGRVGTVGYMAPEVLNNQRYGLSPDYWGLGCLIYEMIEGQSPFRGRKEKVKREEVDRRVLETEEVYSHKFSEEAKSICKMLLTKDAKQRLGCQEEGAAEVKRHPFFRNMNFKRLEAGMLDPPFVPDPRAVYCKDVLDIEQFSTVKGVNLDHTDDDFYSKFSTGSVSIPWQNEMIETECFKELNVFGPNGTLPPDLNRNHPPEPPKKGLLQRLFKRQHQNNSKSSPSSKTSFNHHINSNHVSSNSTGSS
Chain of 5-hydroxytryptamine receptor 7 (Homo sapiens) (P34969 whole entry): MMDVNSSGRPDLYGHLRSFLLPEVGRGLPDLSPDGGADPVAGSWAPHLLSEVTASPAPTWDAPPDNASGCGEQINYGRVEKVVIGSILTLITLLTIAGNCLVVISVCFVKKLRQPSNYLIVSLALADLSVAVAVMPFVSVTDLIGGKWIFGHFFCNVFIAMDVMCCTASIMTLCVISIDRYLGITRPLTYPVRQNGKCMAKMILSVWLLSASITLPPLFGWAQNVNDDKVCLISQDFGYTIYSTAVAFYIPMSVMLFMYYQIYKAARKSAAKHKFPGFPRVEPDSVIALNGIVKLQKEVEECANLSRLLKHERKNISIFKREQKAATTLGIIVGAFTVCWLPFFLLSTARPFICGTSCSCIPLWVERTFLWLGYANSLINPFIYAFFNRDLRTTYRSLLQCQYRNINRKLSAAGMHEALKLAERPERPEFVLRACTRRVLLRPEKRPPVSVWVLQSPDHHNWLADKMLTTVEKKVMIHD
Chain of Histamine H1 receptor (Homo sapiens) (P35367 whole entry): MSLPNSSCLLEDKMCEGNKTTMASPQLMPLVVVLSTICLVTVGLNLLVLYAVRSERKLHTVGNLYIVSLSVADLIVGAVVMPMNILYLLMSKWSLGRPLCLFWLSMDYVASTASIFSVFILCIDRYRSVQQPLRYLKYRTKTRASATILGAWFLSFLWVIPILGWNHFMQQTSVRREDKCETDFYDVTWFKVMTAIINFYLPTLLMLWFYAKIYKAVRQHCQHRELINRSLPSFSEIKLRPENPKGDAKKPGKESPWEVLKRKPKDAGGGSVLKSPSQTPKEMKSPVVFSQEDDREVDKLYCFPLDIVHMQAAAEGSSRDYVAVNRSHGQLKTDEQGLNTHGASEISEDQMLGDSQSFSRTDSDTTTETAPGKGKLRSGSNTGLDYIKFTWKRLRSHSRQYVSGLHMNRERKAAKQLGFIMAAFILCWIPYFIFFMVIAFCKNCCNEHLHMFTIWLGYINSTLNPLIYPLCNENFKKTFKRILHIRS
Chain of Beta-2 adrenergic receptor (Homo sapiens) (P07550 whole entry, looked up): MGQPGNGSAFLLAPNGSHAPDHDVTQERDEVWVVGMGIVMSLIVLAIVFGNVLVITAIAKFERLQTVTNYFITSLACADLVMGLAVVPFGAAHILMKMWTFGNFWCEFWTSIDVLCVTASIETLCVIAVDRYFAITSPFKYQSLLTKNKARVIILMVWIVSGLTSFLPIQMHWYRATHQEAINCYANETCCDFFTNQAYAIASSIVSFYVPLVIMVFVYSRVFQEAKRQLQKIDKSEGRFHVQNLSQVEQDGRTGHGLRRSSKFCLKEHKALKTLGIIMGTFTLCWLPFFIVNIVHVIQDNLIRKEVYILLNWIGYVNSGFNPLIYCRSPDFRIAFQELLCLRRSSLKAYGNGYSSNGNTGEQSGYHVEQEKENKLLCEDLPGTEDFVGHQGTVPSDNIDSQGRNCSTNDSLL

In general, inhibition refers to the change of the read-out against control, counted positive when it falls. In the case of `COC[C@H](NC(=O)c1ccn(S(C)(=O)=O)c1)C(=O)Nc1nc(-c2cccc(-c3ccn(C)n3)c2)cs1`, the delta Tm Staurosporine positive control in assay [1] is 6.82; in assay [2], 3.19; in assay [3], 7.3; in [5], 7.41; in [6] it was 14. Also, the ΔTm was 0.544 in assay [1]; 0.303 in assay [2]; -0.288 in [3]; 0.595 in assay [5]; 0.237 in [6]. Moreover, the inhibition in assay [4] was 1.42%; in [7] it was 3.33%; in [8], 1.95%; in assay [9], 10.2%.

Turning to `C[C@H](NC(=O)c1cn(C2(C#N)CC2)cn1)C(=O)Nc1nc(-c2cccc(-c3ccn(C)n3)c2)cs1`, the delta Tm Staurosporine positive control was found to be 6.82 in [1]; 3.19 in assay [2]; 7.3 in assay [3]; 7.41 in assay [5]; 14 in assay [6]. Moreover, the ΔTm in assay [1] is 0.226; in assay [2], 0.296; in assay [3], -0.415; in assay [5] it was 1.8; in [6], -0.00623. For the same compound, the inhibition was -5.95% in assay [4], 23% in assay [7], 12.5% in [8] and 11.2% in assay [9].
